According to patent publication US20160220552A1, “FORMULATIONS FOR CGRP RECEPTOR ANTAGONISTS” (MERCK SHARP & DOHME CORP., priority 2013, published 2016):

Key:
[1] = control group; cited from earlier work
[2] = clinical trials; cited from earlier work
[3] = BCS classification / solubility of Compound I; assay type: physicochemical
[4] = Permeability of Compound I; assay type: in vitro ADME; conditions: not told

BCS Class [3] | solubility [3] | Papp [4] [×10⁻⁶ cm/s] | Structure (SMILES) | prevention of headache induced by CGRP infusion [1] | effectiveness in treating migraine [2]
– | – | – | NCCCC[C@H](NC(=O)[C@@H](Cc1cc(Br)c(O)c(Br)c1)NC(=O)N1CCC(N2Cc3ccccc3NC2=O)CC1)C(=O)N1CCN(c2ccncc2)CC1 [BIBN4096BS] | able to prevent headache induced by CGRP infusion | effective in treating acute attacks of migraine
BCS Class 4 | low solubility | 16.6 | C[C@@H]1[C@H](c2ccccc2)C[C@H](NC(=O)c2cnc3c(c2)C[C@@]2(C3)C(=O)Nc3ncccc32)C(=O)N1CC(F)(F)F [Compound I, (S)—N-((3S,5S,6R)-6-methyl-2-oxo-5-phenyl-1-(2,2,2-trifluoroethyl)piperidine-3-yl)-2′-oxo-1′,2′,5,7-tetrahydrospiro[cyclopenta[b]pyridine-6,3′-pyrrolo[2,3-b]pyridine]-3-carboxamide trihydrate] | – | –
– | – | – | O=C(N[C@@H]1CC[C@@H](c2cccc(F)c2F)CN(CC(F)(F)F)C1=O)N1CCC(n2c(=O)[nH]c3ncccc32)CC1 [telcagepant] | – | shown antimigraine effectiveness
